Source: a melting point compilation (Tetko et al.)

In the case of Cn1c(-c2ccccc2)cc2cc[nH]c(=O)c21, the melting point is reported as 201 to 203 °C.
CN(C)c1ccc(NC(=S)NN)cc1 gave a melting point of 167 to 169 °C.
In the case of CC(C)Cc1ccc(C=CC(=O)O)cc1, the melting point is reported as 159 to 161 °C.
With NS(=O)(=O)Cc1ccccc1Cl the melting point was 104 to 106 °C.
CC(NC(=O)c1ccccc1NC(=O)CCl)c1ccccc1 (centres undefined) showed a melting point of 118 to 120 °C.
In the case of Nc1ncnc(Cl)c1C=O, the melting point is reported as 159 to 161 °C.
Work on Cc1ccc2c(CC(=O)O)coc2c1C yielded a melting point of 148 to 152 °C.
With CCOc1ccc(C(=O)N(C)C)cc1N the melting point was 127 to 129 °C.
Cc1cc(=O)[nH][nH]1 gave a melting point of 223 to 225 °C.
For NC(=O)C1CC(C(=O)O)=NN1c1ccc(F)cc1 (centres undefined), the melting point was 219 to 221 °C.
For CC(C)n1cc(S(=O)(=O)Cl)cn1, the melting point was 53 to 55 °C.
O=C1CCC2(CCN1)OCCO2 showed a melting point of 101 to 103 °C.
NNc1oc(-c2ccccc2)nc1C(N)=O gave a melting point of 173 to 175 °C.
Compound N#CCc1nc(-c2ccccc2)n[nH]1 has a melting point of 165 to 167 °C.
Work on CN1C(=O)C(C#N)=C(N)C12CCCC2 yielded a melting point of 290 to 292 °C.
Compound CC(C)(C)c1ncc(N)cn1 has a melting point of 119 to 121 °C.
With Nc1cccnc1Nc1ccc2c(c1)C(=O)NC2=O the melting point was 269 to 271 °C.
For NS(=O)(=O)C#Cc1ccccc1, the melting point was 136 to 138 °C.
Nc1ccc(F)cc1Nc1ccccc1F showed a melting point of 53 to 55 °C.
Compound Cc1nn(C)c(C(F)F)c1C(=O)O has a melting point of 165 to 167 °C.
NCc1nnc(-c2cccc(Br)c2)o1 showed a melting point of 98 to 100 °C.
In the case of O=C(O)C1CC1c1cccc(F)c1 (centres undefined), the melting point is reported as 78 to 80 °C.
COc1cc(C=O)ccc1[N+](=O)[O-] gave a melting point of 89 to 91 °C.
O=S(=O)(Nc1nccs1)c1ccccc1 showed a melting point of 169 to 171 °C.
Compound Cc1c[nH]c(=O)n1-c1cccc(C(=O)O)c1 has a melting point of 289 to 291 °C.
In the case of Cc1nn(-c2ccccc2)cc1C(=O)O, the melting point is reported as 192 to 194 °C.
With Oc1cccc(Oc2ccncc2)c1 the melting point was 119 to 121 °C.
For COc1cc(Cl)c(Cl)cc1C(=O)O, the melting point was 148 to 150 °C.
With CCC(N)=S the melting point was 40 to 42 °C.
Work on CC(=O)c1cc([N+](=O)[O-])ccc1F yielded a melting point of 48 to 50 °C.
With FC(F)(F)c1n[nH]c2ccncc12 the melting point was 227 to 229 °C.
With CCOC(=O)c1cncnc1O the melting point was 179 to 181 °C.
In the case of Nc1cccc(CN2CCC(O)CC2)c1, the melting point is reported as 146 to 148 °C.
For CCCOc1ccc(OCCBr)cc1, the melting point was 45 to 47 °C.
In the case of CC1CCCN1C(=O)c1ccc(C#N)cc1 (centres undefined), the melting point is reported as 87 to 89 °C.
Work on Cc1nnnn1-c1ccc(Br)cc1 yielded a melting point of 116 to 118 °C.
For Nc1nc2ccccc2nc1Cl, the melting point was 141 to 143 °C.
For Cc1sc(C(=O)O)cc1-c1ccc(F)cc1, the melting point was 156 to 158 °C.
For NCC(=O)Nc1ccccc1[N+](=O)[O-], the melting point was 81 to 83 °C.
CCc1ccc(C=CS(=O)(=O)Cl)cc1 showed a melting point of 66 to 68 °C.
Compound CC(=O)N1c2ccc(S(=O)(=O)Cl)cc2CC1C (centres undefined) has a melting point of 112 to 114 °C.
In the case of CCc1ccc(C(=O)O)cc1CC, the melting point is reported as 100 to 102 °C.
With O=C(CCl)NCc1ccc(COc2ccccc2)cc1 the melting point was 123 to 125 °C.
Cc1cccc(C(=O)Nc2cccc(O)c2)n1 showed a melting point of 177 to 179 °C.
With CC(=O)N(c1ccc(C(F)(F)F)cc1)c1nc(C=O)cs1 the melting point was 138 to 140 °C.
Compound Cc1[nH]c2ccccc2c1C(=O)C(C)Cl (centres undefined) has a melting point of 133 to 135 °C.
CC(C)C1=NN(C)C(=O)C1 showed a melting point of 110 to 112 °C.
Compound CCOC(=O)/C(C#N)=C\Nc1ccc(Cl)cc1F has a melting point of 154 to 156 °C.
Cc1cc(Cl)c([N+](=O)[O-])cc1S(=O)(=O)Cl gave a melting point of 116 to 118 °C.
Work on COC(=O)C1(N)CCS(=O)(=O)CC1 yielded a melting point of 124 to 126 °C.
In the case of Cn1cnnc1Sc1ccc(C=O)cc1[N+](=O)[O-], the melting point is reported as 171 to 173 °C.
With O=C(O)c1sccc1S(=O)(=O)Nc1ccc(F)cc1 the melting point was 180 to 182 °C.
With CCS(=O)(=O)c1ccccc1C(=O)O the melting point was 49 to 53 °C.
Compound CC(C)C(=O)NC(C)C(=O)O (centres undefined) has a melting point of 154 to 156 °C.
N#Cc1c(CCCN)n[nH]c1N gave a melting point of 169 to 171 °C.
Work on O=C(O)c1ccc(Oc2ccc(Br)cc2)nc1 yielded a melting point of 175 to 177 °C.
Compound CCc1c(-c2ccc(Br)cc2)n[nH]c1N has a melting point of 94 to 96 °C.
CS(=O)(=O)Nc1ccccc1C#N showed a melting point of 99 to 101 °C.
In the case of Cc1cc(CC(=O)NN)[nH]n1, the melting point is reported as 151 to 153 °C.
FC(F)c1nnc2ccc(Cl)nn12 showed a melting point of 101 to 103 °C.
Compound O=C(O)CSCc1cccc(Br)c1 has a melting point of 70 to 80 °C.
Work on O=C(O)c1ccc(COc2ccccc2)cc1 yielded a melting point of 214 to 216 °C.
For CS(=O)(=O)c1ccc(NC(N)=O)cc1, the melting point was 224 to 226 °C.
Compound O=C(O)c1cc(Cl)ccc1OC1CCCC1 has a melting point of 95 to 97 °C.
ClCCc1ncc(-c2ccccc2)o1 gave a melting point of 68 to 70 °C.
For Cc1nn(-c2ccc(F)cc2)c(Cl)c1C=O, the melting point was 124 to 126 °C.
Work on CC(c1ccco1)N(C(=O)CCl)c1ccccn1 (centres undefined) yielded a melting point of 87 to 89 °C.
With NCc1ccc(Cn2cnc3ccccc32)cc1 the melting point was 72 to 74 °C.
In the case of O=C1CCC(Cc2ccc(O)cc2)O1 (centres undefined), the melting point is reported as 104 to 106 °C.
CC(=O)Nc1c(C)cccc1C(=O)O showed a melting point of 204 to 206 °C.
For O=C(Nc1ccc(Br)cc1)C1CCNCC1, the melting point was 209 to 211 °C.
Work on CNc1nc(N)n[nH]1 yielded a melting point of 158 to 160 °C.
In the case of CC(Cl)C(=O)NC1CCCCC1 (centres undefined), the melting point is reported as 98 to 100 °C.
Compound COC(=O)c1cc(=O)c2ccccc2[nH]1 has a melting point of 223 to 225 °C.
COc1c(Br)cc(Br)cc1C=O gave a melting point of 93 to 96 °C.
Work on NC(=O)Nc1ccc(C(=O)O)cc1 yielded a melting point of 296 to 298 °C.
For O=[N+]([O-])c1cc(F)c(S(=O)(=O)Cl)c(F)c1, the melting point was 73 to 75 °C.
With CC(=O)c1cnn(C)c1C the melting point was 47 to 49 °C.
Work on O=C(O)c1csc(-c2ncccn2)n1 yielded a melting point of 217 to 219 °C.
Work on CC(=O)c1ccc(S(=O)(=O)C(F)F)cc1 yielded a melting point of 92 to 94 °C.
COc1ccc(/C=C/C(=O)O)cc1S(=O)(=O)NC(C)C gave a melting point of 202 to 204 °C.
For CC(C)(C)C(N)c1nc(-c2nnc[nH]2)no1 (centres undefined), the melting point was 169 to 171 °C.
CN(CC(=O)O)S(=O)(=O)c1ccc2ccccc2c1 showed a melting point of 172 to 174 °C.
With CC(C)(C)OC(=O)NCC1CCC(C(=O)O)CC1 (centres undefined) the melting point was 132 to 134 °C.
In the case of CS(=O)(=O)Nc1nc2ccc(N)cc2s1, the melting point is reported as 281 to 283 °C.
Nn1cnc2c(cnn2-c2ccccc2)c1=O gave a melting point of 233 to 235 °C.
Compound NCc1ccnc(N2CCCC2)n1 has a melting point of 63 to 65 °C.
In the case of NS(=O)(=O)c1ccc(C(=O)O)cc1F, the melting point is reported as 274 to 276 °C.
Work on CCN(CC)S(=O)(=O)c1ccc(C(C)=O)cc1 yielded a melting point of 81 to 83 °C.
Brc1nnc(Cc2ccccc2)s1 gave a melting point of 79 to 81 °C.
With Nc1cccnc1Oc1ccccc1 the melting point was 107 to 109 °C.
Work on CN(Cc1ccccc1)c1nc2ccccc2[nH]1 yielded a melting point of 206 to 208 °C.
O=c1onc(-c2ccccc2)n1CC1CO1 (centres undefined) showed a melting point of 81 to 83 °C.
With Cn1nnc2ccc(C(=O)O)cc21 the melting point was 271 to 273 °C.
Work on CN(C)c1ccc(N2C(=O)C=CC2=O)cc1 yielded a melting point of 152 to 154 °C.
With N#CCc1nc2cc(Cl)ccc2c(=O)[nH]1 the melting point was 282 to 284 °C.
With COCCOc1ccc(F)cc1[N+](=O)[O-] the melting point was 54 to 56 °C.
For C=CC(=O)Nc1cc(N)ccc1F, the melting point was 135 to 137 °C.
O=C(NCc1ccc(F)cc1)C1CCNCC1 showed a melting point of 139 to 141 °C.
For COC(=O)c1n[nH]c(C)c1Cl, the melting point was 129 to 131 °C.
For CCOc1ccc(C(C)=O)cc1CN1CCCCC1, the melting point was 33 to 37 °C.
Compound COc1ccccc1NS(=O)(=O)c1cccc(N)c1 has a melting point of 35 to 37 °C.
O=C(O)CCc1nc(-c2ccccc2)no1 showed a melting point of 138 to 140 °C.
O=C(O)C(NCc1ccccc1)C1CC1 (centres undefined) gave a melting point of 228 to 230 °C.
